From patent publication US9226495B2, “Disinfection aerosol, method of use and manufacture” (SABAN VENTURES PTY LIMITED, priority 2009, dated 2016)

How the values were obtained:
[1] = according OH&S requirements; of Mn; cited from earlier work
[2] = Hydrogen peroxide destruction in bulk solution in a tube, temperature rise as proxy; format: physicochemical; details: antagonist concentrations of below 1×10^−4 M; 0.02M sodium hydroxide; FIG. 3
From the text: Screening was initially conducted using bulk solutions combined in a tube, rather than as aerosols.
During destruction of hydrogen peroxide by Mn(II) or permanganate in tubes the temperature of the solution rather often reached boiling point. This should not happen when the biocide is sprayed as a mist due to absolutely different heat exchange conditions in bulk solution and in a thin layer of biocide. […] By lead time is meant the lag or induction period before the reaction velocity increases steeply.

Structure (SMILES) | permissible exposure limit [1] | time to peak rate of reaction with 35% peroxide [2]
[Mn] [Mn] | 5 mg/m^3 | 
[K+].[O]=[Mn](=[O])(=[O])[O-] [KMnO4] |  | about 10 mins
